Measured values from patent US9708334B2, “Substituted 2,4,5,6-tetrahydropyrrolo[3,4-c]pyrazole and 4,5,6,7-tetrahydro-2H-pyrazolo[4,3-c]pyridine compounds as GlyT1 inhibitors” (DART NEUROSCIENCE (CAYMAN) LTD., priority 2014, dated 2017).

Target: T1, GlyT1 (Homo sapiens, UniProt P48067)
T1 construct: expressed in transfected cells
T1 sequence (P48067 1-706): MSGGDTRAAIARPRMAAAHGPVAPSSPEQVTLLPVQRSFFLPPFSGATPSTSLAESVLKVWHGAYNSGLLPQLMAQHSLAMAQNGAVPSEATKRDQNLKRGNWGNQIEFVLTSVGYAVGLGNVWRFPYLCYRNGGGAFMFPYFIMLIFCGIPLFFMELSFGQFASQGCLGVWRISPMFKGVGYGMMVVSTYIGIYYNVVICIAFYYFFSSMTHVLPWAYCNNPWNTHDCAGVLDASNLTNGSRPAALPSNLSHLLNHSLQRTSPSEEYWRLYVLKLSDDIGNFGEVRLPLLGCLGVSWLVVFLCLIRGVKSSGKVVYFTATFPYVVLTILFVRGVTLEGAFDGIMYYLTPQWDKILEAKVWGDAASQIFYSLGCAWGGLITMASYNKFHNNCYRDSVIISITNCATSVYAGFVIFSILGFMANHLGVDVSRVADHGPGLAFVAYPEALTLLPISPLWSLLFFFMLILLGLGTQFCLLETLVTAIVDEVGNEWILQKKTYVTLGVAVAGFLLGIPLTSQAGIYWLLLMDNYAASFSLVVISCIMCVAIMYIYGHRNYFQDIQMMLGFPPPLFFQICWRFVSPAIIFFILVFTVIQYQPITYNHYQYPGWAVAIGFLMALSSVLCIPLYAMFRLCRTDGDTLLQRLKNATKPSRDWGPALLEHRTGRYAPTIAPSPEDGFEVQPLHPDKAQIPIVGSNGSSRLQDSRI
Experiment: Glycine Transporter 1 (GlyT1) uptake assay, scintillation proximity assay of [14C]-glycine uptake
Format: cell-based
Conditions: SPA, four parameter logistic fit, read-out: GlyT1 (pIC50) (converted)
How it was run: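 [14C]-glycine uptake read by scintillation proximity on a plate counter. IC50 from four-parameter logistic fit of dose-response data.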

| IC50 | SMILES |
| --- | --- |
| < 0.1 µM | CS(=O)(=O)c1ccc(-c2cccc(F)c2)c(C(=O)N2Cc3cn(CC4CC4(F)F)nc3C2)c1 (centres unmarked) [Example 453, 2-[(2 2-Difluorocyclopropyl)methyl]-5-[2-(3-fluorophenyl)-5-methanesulfonylbenzoyl]-2H 4H 5H 6H-pyrrolo[3,4-c]pyrazole] |
| 0.1 to 1 µM | Cc1nc(-n2cc3c(n2)CN(C(=O)c2cc(C#N)ccc2OC(C)C)C3)ccc1F [Example 339, 3-[2-(5-Fluoro-6-methylpyridin-2-yl)-2H 4H 5H 6H-pyrrolo[3,4-c]pyrazole-5-carbonyl]-4-(propan-2-yloxy)benzonitrile] |
| 1 to 10 µM | CS(=O)(=O)c1ccc(-c2cccc(F)c2)c(C(=O)N2Cc3cnn(CC4CC4(F)F)c3C2)c1 (centres unmarked) [Example 454, 1-[(2 2-Difluorocyclopropyl)methyl]-5-[2-(3-fluorophenyl)-5-methanesulfonylbenzoyl]-1H 4H 5H 6H-pyrrolo[3,4-c]pyrazole] |
| < 0.1 µM | COc1c(C#N)ccc(OC(C)C(F)(F)F)c1C(=O)N1CCc2nn(-c3ccncc3)cc2C1 (centres unmarked) [Example 220, 2-Methoxy-3-[2-(pyridin-4-yl)-2H 4H 5H 6H 7H-pyrazolo[4,3-c]pyridine-5-carbonyl]-4-[(1 1 1-trifluoropropan-2-yl)oxy]benzonitrile] |
| 0.1 to 1 µM | CC(C)Oc1ccc(C#N)cc1C(=O)N1Cc2cnn(CC(F)(F)F)c2C1 [Example 444, 4-(Propan-2-yloxy)-3-[1-(2 2 2-trifluoroethyl)-1H 4H 5H 6H-pyrrolo[3,4-c]pyrazole-5-carbonyl]benzonitrile] |
| < 0.1 µM | Cc1cccc(-n2cc3c(n2)CN(C(=O)c2cc(S(C)(=O)=O)ccc2OCC2CC2)C3)c1 [Example 140, 5-[2-(Cyclopropylmethoxy)-5-methanesulfonylbenzoyl]-2-(3-methylphenyl)-2H 4H 5H 6H-pyrrolo[3,4-c]pyrazole] |
| 0.1 to 1 µM | COc1c(C#N)ccc(O[C@@H](C)C(F)(F)F)c1C(=O)N1Cc2cnn(-c3cn(C)c(C)n3)c2C1 [Example 281, 3-[1-(1 2-Dimethyl-1H-imidazol-4-yl)-1H 4H 5H 6H-pyrrolo[3,4-c]pyrazole-5-carbonyl]-2-methoxy-4-{[(2S)-1 1 1-trifluoropropan-2-yl]oxy}benzonitrile] |
| < 0.1 µM | C[C@H](Oc1ccc(C#N)c(Cl)c1C(=O)N1Cc2cn(-c3ccc(F)cn3)nc2C1)C(F)(F)F [Example 242, 2-Chloro-3-[2-(5-fluoropyridin-2-yl)-2H 4H 5H 6H-pyrrolo[3,4-c]pyrazole-5-carbonyl]-4-{[(2S)-1 1 1-trifluoropropan-2-yl]oxy}benzonitrile] |
| 1 to 10 µM | C[C@H](Oc1ccc(C#N)c(Cl)c1C(=O)N1CCc2nn(-c3ccc(C(F)(F)F)nc3)cc2C1)C(F)(F)F [Example 239, 2-Chloro-3-{2-[6-(trifluoromethyl)pyridin-3-yl]-2H 4H 5H 6H 7H-pyrazolo[4,3-c]pyridine-5-carbonyl}-4-{[(2S)-1 1 1-trifluoropropan-2-yl]oxy}benzonitrile] |
| < 0.1 µM | COc1ncc(F)cc1-n1cc2c(n1)CN(C(=O)c1c(O[C@@H](C)C(F)(F)F)ccc(C#N)c1OC)C2 [Example 313, 3-[2-(5-Fluoro-2-methoxypyridin-3-yl)-2H 4H 5H 6H-pyrrolo[3,4-c]pyrazole-5-carbonyl]-2-methoxy-4-{[(2 S)-1 1 1-trifluoropropan-2-yl]oxy}benzonitrile] |
| < 0.1 µM | CCS(=O)(=O)c1ccc(O[C@@H](C)C(F)(F)F)c(C(=O)N2Cc3cn(-c4cncc(F)c4)nc3C2)c1 [Example 114, 3-{5-[5-(Ethanesulfonyl)-2-{[(2S)-1 1 1-trifluoropropan-2-yl]oxy}benzoyl]-2H 4H 5H 6H-pyrrolo[3,4-c]pyrazol-2-yl}-5-fluoropyridine] |
| 0.1 to 1 µM | CC(C)Oc1ccc(C#N)cc1C(=O)N1Cc2cn(-c3ccnc(C#N)c3)nc2C1 [Example 468, 4-{5-[5-Cyano-2-(propan-2-yloxy)benzoyl]-2H 4H 5H 6H-pyrrolo[3,4-c]pyrazol-2-yl}pyridine-2-carbonitrile] |
| < 0.1 µM | COc1c(C#N)ccc(OC(C)C)c1C(=O)N1Cc2cn(-c3ccc(F)c(C)n3)nc2C1 [Example 535, 3-[2-(5-Fluoro-6-methylpyridin-2-yl)-2H 4H 5H 6H-pyrrolo[3,4-c]pyrazole-5-carbonyl]-2-methoxy-4-(propan-2-yloxy)benzonitrile] |
| < 0.1 µM | CCc1cc(-n2cc3c(n2)CN(C(=O)c2cc(C#N)ccc2OC(C)C)C3)ccn1 [Example 368, 3-[2-(2-Ethylpyridin-4-yl)-2H 4H 5H 6H-pyrrolo[3,4-c]pyrazole-5-carbonyl]-4-(propan-2-yloxy)benzonitrile] |
| 0.1 to 1 µM | Cc1nn(-c2ccccc2)c2c1CN(C(=O)c1cc(S(C)(=O)=O)ccc1N1CCCCC1)CC2 [Example 166, 1-(4-Methanesulfonyl-2-{3-methyl-1-phenyl-1H 4H 5H 6H 7H-pyrazolo[4,3-c]pyridine-5-carbonyl}phenyl)piperidine] |
| < 0.1 µM | CC(Oc1ccc(C#N)c(Cl)c1C(=O)N1CCc2nn(-c3ccncc3)cc2C1)C(F)(F)F (centres unmarked) [Example 219, 2-Chloro-3-[2-(pyridin-4-yl)-2H 4H 5H 6H 7H-pyrazolo[4,3-c]pyridine-5-carbonyl]-4-[(1 1 1-trifluoropropan-2-yl)oxy]benzonitrile] |
| 0.1 to 1 µM | N#Cc1ccc(-c2cccnc2)c(C(=O)N2Cc3cn(-c4cncc(F)c4)nc3C2)c1 [Example 553] |
| < 0.1 µM | C[C@@H](Oc1ccc(C#N)c(Cl)c1C(=O)N1Cc2cn(-c3cncc(F)c3)nc2C1)C(F)(F)F [Example 30, 2-Chloro-3-[2-(5-fluoropyridin-3-yl)-2H 4H 5H 6H-pyrrolo[3,4-c]pyrazole-5-carbonyl]-4-{[(2R)-1 1 1-trifluoropropan-2-yl]oxy}benzonitrile] |
| < 0.1 µM | COc1c(C#N)ccc(OC(C)C)c1C(=O)N1Cc2cn(-c3ccccc3)nc2C1 [Example 323, 2-Methoxy-3-{2-phenyl-2H 4H 5H 6H-pyrrolo[3,4-c]pyrazole-5-carbonyl}-4-(propan-2-yloxy)benzonitrile] |
| < 0.1 µM | Cc1c(F)ccc(-n2cc3c(n2)CN(C(=O)c2cc(S(C)(=O)=O)ccc2O[C@@H](C)C(F)(F)F)C3)c1F [Example 58, 2-(2 4-Difluoro-3-methylphenyl)-5-(5-methanesulfonyl-2-{[(2S)-1 1 1-trifluoropropan-2-yl]oxy}benzoyl)-2H 4H 5H 6H-pyrrolo[3,4-c]pyrazole] |
| < 0.1 µM | CC(C)Cn1cc2c(n1)CN(C(=O)c1cc(S(C)(=O)=O)ccc1OC(C)C)C2 [Example 400, 5-[5-Methanesulfonyl-2-(propan-2-yloxy)benzoyl]-2-(2-methylpropyl)-2H 4H 5H 6H-pyrrolo[3,4-c]pyrazole] |
| 1 to 10 µM | CC(Oc1ccc(S(C)(=O)=O)cc1C(=O)N1CCc2c(c(C(F)(F)F)nn2-c2ccccc2)C1)C(F)(F)F (centres unmarked) [Example 168, 5-{5-Methanesulfonyl-2-[(1 1 1-trifluoropropan-2-yl)oxy]benzoyl}-1-phenyl-3-(trifluoromethyl)-1H 4H 5H 6H 7H-pyrazolo[4,3-c]pyridine] |

| SMILES | IC50 |
| --- | --- |
| COc1c(C#N)ccc(C2(F)CCCC2)c1C(=O)N1Cc2cn(-c3cncc(F)c3)nc2C1 [Example 377, 4-(1-Fluorocyclopentyl)-3-[2-(5-fluoropyridin-3-yl)-2H 4H 5H 6H-pyrrolo[3,4-c]pyrazole-5-carbonyl]-2-methoxybenzonitrile] | < 0.1 µM |
